Reference: patent US20180368410A1, “MICROBIOCIDAL OXADIAZOLE DERIVATIVES” (SYNGENTA PARTICIPATIONS AG, priority 2015, published 2018)

What was measured:
[1] = system: Puccinia recondita f. Sp. Tritici; test: Puccinia recondita f. sp. tritici / wheat / leaf disc preventative (brown rust); assay type: in vivo, Puccinia recondita f. sp. tritici on wheat cv. Kanzler; settings: foliar, 200 ppm in the applied formulation, inoculated 1 day after application, assessed 7 to 9 days after application, vs untreated control leaf disks, read-out: disease control
Description: Leaf disks or leaf segments of various plant species are cut from plants grown in a greenhouse. The cut leaf disks or segments are placed in multiwell plates (24-well format) onto water agar. The leaf disks are sprayed with a test solution before (preventative) or after (curative) inoculation. Compounds to be tested are prepared as DMSO solutions (max. 10 mg/ml) which are diluted to the appropriate concentration with 0.025% Tween20 just before spraying. The inoculated leaf disks or segments are incubated under defined conditions (temperature, relative humidity, light, etc.) according to the respective test system. A single evaluation of disease level is carried out 3 to 14 days after inoculation, depending on the pathosystem. Percent disease control relative to the untreated check leaf disks or segments is then calculated. Wheat leaf segments cv. Kanzler were placed on agar in multiwell plates (24-well format) and sprayed with the formulated test compound diluted in water. The leaf disks were inoculated with a spore suspension of the fungus 1 day after application. The inoculated leaf segments were incubated at 19′C and 75% relative humidity (rh) under a light regime of 12 hours light/12 hours darkness in a climate cabinet and the activity of a compound was assessed as percent disease control compared to untreated when an appropriate level of disease damage appears in untreated check leaf segments (7 to 9 days after application). The following compounds at 200 ppm in the applied formulation give at least 80% disease control in this test when compared to untreated control leaf disks under the same conditions, which show extensive disease development.

[2] = system: Glomerella Lacenarium (Colletotrichum lacenarium); test: Glomerella lagenarium (Colletotrichum lagenarium) liquid culture / cucumber / preventative (anthracnose); assay type: cell-based; settings: 20 ppm in the applied formulation, liquid culture in PDB, 24° C., inhibition of growth measured photometrically 3 to 4 days after application, vs untreated control, read-out: disease control
Description: Mycelia fragments or conidia suspensions of a fungus prepared either freshly from liquid cultures of the fungus or from cryogenic storage, are directly mixed into nutrient broth. DMSO solutions of the test compound (max. 10 mg/ml) are diluted with 0.025% Tween20 by a factor of 50 and 10 μl of this solution is pipetted into a microtiter plate (96-well format). The nutrient broth containing the fungal spores/mycelia fragments is then added to give an end concentration of the tested compound. The test plates are incubated in the dark at 24° C. and 96% relative humidity. The inhibition of fungal growth is determined photometrically after 2 to 7 days, depending on the pathosystem, and percent antifungal activity relative to the untreated check is calculated.
Conidia of the fungus from cryogenic storage are directly mixed into nutrient broth (PDB—potato dextrose broth). After placing a (DMSO) solution of test compound into a microtiter plate (96-well format), the nutrient broth containing the fungal spores is added. The test plates are incubated at 24° C. and the inhibition of growth is measured photometrically 3 to 4 days after application.
The following compounds at 20 ppm in the applied formulation give at least 80% disease control in this test when compared to untreated control under the same conditions, which show extensive disease development.

[3] = system: Phakopsora pachyrhizi; test: Phakopsora pachyrhizi / soybean / leaf disc preventative (Asian soybean rust); assay type: in vivo, Phakopsora pachyrhizi on soybean; settings: foliar, 200 ppm in the applied formulation, inoculated one day after application, assessed 12 to 14 days after application, vs untreated control leaf disks, read-out: disease control
Description: (§1) Leaf disks or leaf segments of various plant species are cut from plants grown in a greenhouse. The cut leaf disks or segments are placed in multiwell plates (24-well format) onto water agar. The leaf disks are sprayed with a test solution before (preventative) or after (curative) inoculation. Compounds to be tested are prepared as DMSO solutions (max. 10 mg/ml) which are diluted to the appropriate concentration with 0.025% Tween20 just before spraying. The inoculated leaf disks or segments are incubated under defined conditions (temperature, relative humidity, light, etc.) according to the respective test system. A single evaluation of disease level is carried out 3 to 14 days after inoculation, depending on the pathosystem. Percent disease control relative to the untreated check leaf disks or segments is then calculated.
Soybean leaf disks are placed on water agar in multiwell plates (24-well format) and sprayed with the formulated test compound diluted in water. One day after application leaf discs are inoculated by spraying a spore suspension on the lower leaf surface. After an incubation period in a climate cabinet of 24-36 hours in darkness at 20° C. and 75% rh leaf disc are kept at 20° C. with 12 h light/day and 75% rh. The activity of a compound is assessed as percent disease control compared to untreated when an appropriate level of disease damage appears in untreated check leaf disks (12 to 14 days after application).
(§2) The following compounds at 200 ppm in the applied formulation give at least 80% disease control in this test when compared to untreated control leaf disks under the same conditions, which show extensive disease development.

[4] = system: Puccinia recondita f. Sp. Triticil; test: Puccinia recondita f. sp. tritici / wheat / leaf disc curative (brown rust); assay type: in vivo, Puccinia recondita f. sp. tritici on wheat cv. Kanzler; settings: foliar, 200 ppm in the applied formulation, applied 1 day after inoculation, assessed 6 to 8 days after application, vs untreated control leaf disks, read-out: disease control
Description: as §1
Wheat leaf segments cv. Kanzler are placed on agar in multiwell plates (24-well format). The leaf segments are then inoculated with a spore suspension of the fungus. Plates were stored in darkness at 19° C. and 75% relative humidity. The formulated test compound diluted in water was applied 1 day after inoculation. The leaf segments were incubated at 19° C. and 75% relative humidity under a light regime of 12 hours light/12 hours darkness in a climate cabinet and the activity of a compound was assessed as percent disease control compared to untreated when an appropriate level of disease damage appears in untreated check leaf segments (6 to 8 days after application).
as §2

O=C(NCc1ccc(-c2noc(C(F)(F)F)n2)cc1)C1CCCCC1 [Compound 1.10, N-[[4-[5-(trifluoromethyl)-1,2,4-oxadiazol-3-yl]phenyl]methyl] cyclohexanecarboxamide]
≥ 80%: pest or weed control at 200 ppm [1] | inhibition of growth at 20 ppm [2] | pest or weed control at 200 ppm [3]

CC1(C(=O)NCc2ccc(-c3noc(C(F)(F)F)n3)cc2F)COC1 [Compound 1.71, N-[[2-fluoro-4-[5-(trifluoromethyl)-1,2,4-oxadiazol-3-yl]phenyl]methyl]-3-methyl-oxetane-3-carboxamide]
≥ 80%: pest or weed control at 200 ppm [1] | pest or weed control at 200 ppm [4] | inhibition of growth at 20 ppm [2]

CC1CC1C(=O)NCc1ccc(-c2noc(C(F)(F)F)n2)c(F)c1F (stereo not drawn) [Compound 1.77, N-[[2,3-difluoro-4-[5-(trifluoromethyl)-1,2,4-oxadiazol-3-yl]phenyl]methyl]-2-methyl-cyclopropanecarboxamide]
≥ 80%: pest or weed control at 200 ppm [1] | inhibition of growth at 20 ppm [2] | pest or weed control at 200 ppm [3]

O=C(NCc1ccc(-c2noc(C(F)(F)F)n2)c(F)c1F)C1CCOC1 (stereo not drawn) [Compound 1.83, N-[[2,3-difluoro-4-[5-(trifluoromethyl)-1,2,4-oxadiazol-3-yl]phenyl]methyl] tetrahydrofuran-3-carboxamide]
≥ 80%: pest or weed control at 200 ppm [1] | pest or weed control at 200 ppm [4] | inhibition of growth at 20 ppm [2]

CC1(C(=O)NCc2ccc(-c3noc(C(F)(F)F)n3)c(F)c2F)COC1 [Compound 1.85, N-[[2,3-difluoro-4-[5-(trifluoromethyl)-1,2,4-oxadiazol-3-yl]phenyl]methyl]-3-methyl-oxetane-3-carboxamide]
≥ 80%: pest or weed control at 200 ppm [1] | pest or weed control at 200 ppm [4] | inhibition of growth at 20 ppm [2]

O=C(NCc1ccc(-c2noc(C(F)(F)F)n2)cn1)C1CC1(F)F (stereo not drawn) [Compound 1.86, 2,2-difluoro-N-[[5-[5-(trifluoromethyl)-1,2,4-oxadiazol-3-yl]-2-pyridyl]methyl] cyclopropanecarboxamide]
≥ 80%: pest or weed control at 200 ppm [1] | pest or weed control at 200 ppm [4] | inhibition of growth at 20 ppm [2]

O=C(CC1CC1)NCc1ccc(-c2noc(C(F)(F)F)n2)cn1 [Compound 1.87, 2-cyclopropyl-N-[[5-[5-(trifluoromethyl)-1,2,4-oxadiazol-3-yl]-2-pyridyl]methyl]acetamide]
≥ 80%: pest or weed control at 200 ppm [1] | pest or weed control at 200 ppm [4] | inhibition of growth at 20 ppm [2]

O=C(NCc1ccc(-c2noc(C(F)(F)F)n2)cn1)C1CCC1 [Compound 1.88, N-[[5-[5-(trifluoromethyl)-1,2,4-oxadiazol-3-yl]-2-pyridyl]methyl] cyclobutanecarboxamide]
≥ 80%: pest or weed control at 200 ppm [1] | pest or weed control at 200 ppm [4] | inhibition of growth at 20 ppm [2]

CC1CC1C(=O)NCc1ccc(-c2noc(C(F)(F)F)n2)cn1 (stereo not drawn) [Compound 1.89, 2-methyl-N-[[5-[5-(trifluoromethyl)-1,2,4-oxadiazol-3-yl]-2-pyridyl]methyl] cyclopropanecarboxamide]
≥ 80%: pest or weed control at 200 ppm [1] | pest or weed control at 200 ppm [4] | inhibition of growth at 20 ppm [2]

CC1(C(=O)NCc2ccc(-c3noc(C(F)(F)F)n3)cn2)CC1 [Compound 1.90, 1-methyl-N-[[5-[5-(trifluoromethyl)-1,2,4-oxadiazol-3-yl]-2-pyridyl]methyl] cyclopropanecarboxamide]
≥ 80%: pest or weed control at 200 ppm [1] | pest or weed control at 200 ppm [4] | inhibition of growth at 20 ppm [2]
